From ChEMBL document CHEMBL1135954, “Opioid activity of 4-imidazolidinone positional analogues of Leu-Enkephalin” (Bioorg Med Chem Lett, 2002)
Peptide text beside a SMILES is read from it. * marks the point of attachment. X1 = CC(C)C[C@H]1C(=O)NCN1*

Columns and labels:
[1] = target: Kappa-type opioid receptor (Rattus norvegicus, UniProt P34975); assay: Binding affinity towards Opioid receptor kappa 1 was determined using U69,593 as the radioligand.
Mu-type opioid receptor = Mu-type opioid receptor (Rattus norvegicus, UniProt P33535)
Sequence of Mu-type opioid receptor (P33535 whole entry): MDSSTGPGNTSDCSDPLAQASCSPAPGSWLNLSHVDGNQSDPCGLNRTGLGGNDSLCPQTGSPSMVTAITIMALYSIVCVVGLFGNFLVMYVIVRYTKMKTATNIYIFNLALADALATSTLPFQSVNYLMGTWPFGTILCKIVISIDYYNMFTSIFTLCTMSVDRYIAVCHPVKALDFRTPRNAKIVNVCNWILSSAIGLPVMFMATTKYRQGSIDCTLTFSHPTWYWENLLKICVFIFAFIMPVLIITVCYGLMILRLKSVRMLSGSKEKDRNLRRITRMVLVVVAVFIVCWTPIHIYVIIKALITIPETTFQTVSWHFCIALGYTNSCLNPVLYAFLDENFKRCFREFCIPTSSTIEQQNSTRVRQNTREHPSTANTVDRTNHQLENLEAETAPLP

Sequence of Kappa-type opioid receptor (P34975 whole entry): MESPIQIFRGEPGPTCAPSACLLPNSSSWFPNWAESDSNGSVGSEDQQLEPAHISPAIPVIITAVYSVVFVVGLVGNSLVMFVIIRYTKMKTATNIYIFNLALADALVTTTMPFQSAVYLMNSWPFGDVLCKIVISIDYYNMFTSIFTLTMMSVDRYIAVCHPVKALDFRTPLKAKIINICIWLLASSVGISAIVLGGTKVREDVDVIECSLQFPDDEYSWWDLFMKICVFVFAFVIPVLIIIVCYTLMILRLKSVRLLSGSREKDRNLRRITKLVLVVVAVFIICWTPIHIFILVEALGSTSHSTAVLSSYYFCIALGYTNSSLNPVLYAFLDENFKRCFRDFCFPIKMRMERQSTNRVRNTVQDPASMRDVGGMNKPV

Structure (SMILES) | Ki [1] [nM] | Ki (Mu-type opioid receptor) [nM]
CC(C)C[C@@H](C(N)=O)N1CN(C(=O)CNC(=O)CNC(=O)[C@@H](N)Cc2ccc(O)cc2)[C@@H](Cc2ccccc2)C1=O | > 10000 | 2560
CNC(=O)[C@H](CC(C)C)N(C)C(=O)[C@H](Cc1ccccc1)NC(=O)CNC(=O)CNC(=O)[C@@H](N)Cc1ccc(O)cc1 | 1690 | 28
CC(C)C[C@@H](C(N)=O)N(C)C(=O)[C@H](Cc1ccccc1)NC(=O)CNC(=O)CNC(=O)[C@@H](N)Cc1ccc(O)cc1 | 2230 | 46
CC(C)C[C@H](NC(=O)[C@H](Cc1ccccc1)NC(=O)CN1CN(C(=O)[C@@H](N)Cc2ccc(O)cc2)CC1=O)C(N)=O | > 10000 | 92
CC(C)C[C@H](NC(=O)[C@H](Cc1ccccc1)NC(=O)CNC(=O)CN1CN[C@@H](Cc2ccc(O)cc2)C1=O)C(N)=O | > 10000 | 547
CC(C)C[C@H](NC(=O)[C@H](Cc1ccccc1)N1CN(C(=O)CNC(=O)[C@@H](N)Cc2ccc(O)cc2)CC1=O)C(N)=O | > 10000 | 236
CC(C)C[C@H]1C(=O)NCN1C(=O)[C@H](Cc1ccccc1)NC(=O)CNC(=O)CNC(=O)[C@@H](N)Cc1ccc(O)cc1 (H-YGGF-X1) | 2890 | 4
CNC(=O)[C@H](CC(C)C)NC(=O)[C@H](Cc1ccccc1)NC(=O)CNC(=O)CNC(=O)[C@@H](N)Cc1ccc(O)cc1 | 1370 | 145
